Experimental data: patent US20200016174A1, “PHARMACEUTICAL COMPOSITION” (MEXICHEM FLUOR S.A. DE C.V., priority 2016, published 2020)
Structures can show the parent of a compound that is named as a salt.

What was measured:
Format in all cases: physicochemical
[1] = Chemical stability (total impurities) of beclomethasone dipropionate formulations with varying ethanol and glycerol in uncoated aluminium cans; settings: for % Total Imps T = 0 / % Total Imps T = 1 M @ 40° C./75% RH / % Total Imps T = 3 M @ 40° C./75% RH: uncoated aluminium cans
Experimental: A number of experiments were conducted to investigate the stability of beclomethasone dipropionate in HFA-134a and HFA-152a.
Anhydrous ethanol in an amount of 5, 10 or 15 weight % based on the total weight of the formulation and glycerol in an amount of 0, 1 or 2 weight %, again based on the total weight of the formulation, were then added to the canisters. […] The nominal dose of beclomethasone dipropionate was […].

[2] = In vitro aerosolization performance (Next Generation Impactor) of beclomethasone dipropionate / formoterol fumarate dihydrate combination MDI formulations; settings: after 1 month at ambient conditions, NGI 30 L/min
[3] = In vitro aerosolization performance (Next Generation Impactor) of beclomethasone dipropionate MDI formulations in HFA-152a with varying ethanol and glycerol; settings: immediately after preparation
Experimental: A number of experiments were conducted to investigate the effects of glycerol on the in vitro aerosolization performance of drug formulations of beclomethasone dipropionate delivered from a metered dose inhaler (MDI) using HFA-152a as the propellant.
Pharmaceutical formulations of beclomethasone dipropionate were prepared in HFA-152a (Mexichem, UK). […] Anhydrous ethanol in an amount of 5, 10 or 15 weight % based on the total weight of the formulation and glycerol in an amount of 0, 1 or 2 weight %, again based on the total weight of the formulation, were then added to the canisters. […] The nominal dose of beclomethasone dipropionate was […].

[4] = HFA-134a, 5 wt. % ethanol, 0 wt. % glycerol
[5] = HFA-134a, 5 wt. % ethanol, 1 wt. % glycerol
[6] = HFA-134a, 5 wt. % ethanol, 2 wt. % glycerol
[7] = HFA-134a, 10 wt. % ethanol, 0 wt. % glycerol
[8] = HFA-134a, 10 wt. % ethanol, 1 wt. % glycerol
[9] = HFA-134a, 10 wt. % ethanol, 2 wt. % glycerol
[10] = HFA-134a, 15 wt. % ethanol, 0 wt. % glycerol
[11] = HFA-134a, 15 wt. % ethanol, 1 wt. % glycerol
[12] = HFA-134a, 15 wt. % ethanol, 2 wt. % glycerol
[13] = HFA-152a, 5 wt. % ethanol, 0 wt. % glycerol
[14] = HFA-152a, 5 wt. % ethanol, 1 wt. % glycerol
[15] = HFA-152a, 5 wt. % ethanol, 2 wt. % glycerol
[16] = HFA-152a, 10 wt. % ethanol, 0 wt. % glycerol
[17] = HFA-152a, 10 wt. % ethanol, 1 wt. % glycerol
[18] = HFA-152a, 10 wt. % ethanol, 2 wt. % glycerol
[19] = HFA-152a, 15 wt. % ethanol, 0 wt. % glycerol
[20] = HFA-152a, 15 wt. % ethanol, 1 wt. % glycerol
[21] = HFA-152a, 15 wt. % ethanol, 2 wt. % glycerol
[22] = combination formulation in HFA-134a and 10 weight % ethanol
[23] = combination formulation in HFA-152a and 10 weight % ethanol
[24] = 5 wt. % ethanol, 0 wt. % glycerol
[25] = 5 wt. % ethanol, 1 wt. % glycerol
[26] = 5 wt. % ethanol, 2 wt. % glycerol
[27] = 10 wt. % ethanol, 0 wt. % glycerol
[28] = 10 wt. % ethanol, 1 wt. % glycerol
[29] = 10 wt. % ethanol, 2 wt. % glycerol
[30] = 15 wt. % ethanol, 0 wt. % glycerol
[31] = 15 wt. % ethanol, 1 wt. % glycerol
[32] = 15 wt. % ethanol, 2 wt. % glycerol

In the case of CCC(=O)OCC(=O)[C@@]1(OC(=O)CC)[C@@H](C)C[C@H]2[C@@H]3CCC4=CC(=O)C=C[C@]4(C)[C@@]3(Cl)[C@@H](O)C[C@@]21C [beclomethasone dipropionate], the “% Total Imps T = 0” value [1, 4] is reported as 0.89%, the “% Total Imps T = 1 M @ 40° C./75% RH” value [1, 4] is reported as 1.58% and the “% Total Imps T = 3 M @ 40° C./75% RH” value [1, 4] is reported as 2.08%. For the same compound, the “% Total Imps T = 0” value [1, 5] was 0.34%, the “% Total Imps T = 1 M @ 40° C./75% RH” value [1, 5] was 1.91% and the “% Total Imps T = 3 M @ 40° C./75% RH” value [1, 5] was 2.14%. For the same compound, the “% Total Imps T = 0” value [1, 6] was 0.55%, the “% Total Imps T = 1 M @ 40° C./75% RH” value [1, 6] was 0.78% and the “% Total Imps T = 3 M @ 40° C./75% RH” value [1, 6] was 1.18%. The “% Total Imps T = 0” value [1, 7] was 1.16%, the “% Total Imps T = 1 M @ 40° C./75% RH” value [1, 7] was 1.82% and the “% Total Imps T = 3 M @ 40° C./75% RH” value [1, 7] was 2.21%. The “% Total Imps T = 0” value [1, 8] was 1.34%, the “% Total Imps T = 1 M @ 40° C./75% RH” value [1, 8] was 2.25% and the “% Total Imps T = 3 M @ 40° C./75% RH” value [1, 8] was 2.49%. The “% Total Imps T = 0” value [1, 9] was 1.49%, the “% Total Imps T = 1 M @ 40° C./75% RH” value [1, 9] was 1.97% and the “% Total Imps T = 3 M @ 40° C./75% RH” value [1, 9] was 2.35%. For the same compound, the “% Total Imps T = 0” value [1, 10] was 1.08%, the “% Total Imps T = 1 M @ 40° C./75% RH” value [1, 10] was 2.35% and the “% Total Imps T = 3 M @ 40° C./75% RH” value [1, 10] was 4.21%. For the same compound, the “% Total Imps T = 0” value [1, 11] was 2.88%, the “% Total Imps T = 1 M @ 40° C./75% RH” value [1, 11] was 3.15% and the “% Total Imps T = 3 M @ 40° C./75% RH” value [1, 11] was 3.99%. The “% Total Imps T = 0” value [1, 12] was 2.95%, the “% Total Imps T = 1 M @ 40° C./75% RH” value [1, 12] was 4.22% and the “% Total Imps T = 3 M @ 40° C./75% RH” value [1, 12] was 4.89%. The “% Total Imps T = 0” value [1, 13] was 0.08%, the “% Total Imps T = 1 M @ 40° C./75% RH” value [1, 13] was 0.16% and the “% Total Imps T = 3 M @ 40° C./75% RH” value [1, 13] was 0.35%. The “% Total Imps T = 0” value [1, 14] was 0.11%, the “% Total Imps T = 1 M @ 40° C./75% RH” value [1, 14] was 0.15% and the “% Total Imps T = 3 M @ 40° C./75% RH” value [1, 14] was 0.28%. The “% Total Imps T = 0” value [1, 15] was 0.09%, the “% Total Imps T = 1 M @ 40° C./75% RH” value [1, 15] was 0.21% and the “% Total Imps T = 3 M @ 40° C./75% RH” value [1, 15] was 0.34%. The “% Total Imps T = 0” value [1, 16] was 0.21%, the “% Total Imps T = 1 M @ 40° C./75% RH” value [1, 16] was 0.35% and the “% Total Imps T = 3 M @ 40° C./75% RH” value [1, 16] was 0.42%. The “% Total Imps T = 0” value [1, 17] was 0.34%, the “% Total Imps T = 1 M @ 40° C./75% RH” value [1, 17] was 0.36% and the “% Total Imps T = 3 M @ 40° C./75% RH” value [1, 17] was 0.55%. For the same compound, the “% Total Imps T = 0” value [1, 18] was 0.23%, the “% Total Imps T = 1 M @ 40° C./75% RH” value [1, 18] was 0.29% and the “% Total Imps T = 3 M @ 40° C./75% RH” value [1, 18] was 0.31%. The “% Total Imps T = 0” value [1, 19] was 0.56%, the “% Total Imps T = 1 M @ 40° C./75% RH” value [1, 19] was 0.89% and the “% Total Imps T = 3 M @ 40° C./75% RH” value [1, 19] was 1.11%. For the same compound, the “% Total Imps T = 0” value [1, 20] was 0.66%, the “% Total Imps T = 1 M @ 40° C./75% RH” value [1, 20] was 0.79% and the “% Total Imps T = 3 M @ 40° C./75% RH” value [1, 20] was 1.56%. The “% Total Imps T = 0” value [1, 21] was 0.72%, the “% Total Imps T = 1 M @ 40° C./75% RH” value [1, 21] was 0.89% and the “% Total Imps T = 3 M @ 40° C./75% RH” value [1, 21] was 1.48%. For the same compound, the “stability with HFA-152a as propellant rather than HFA-134a” value ([1]; all investigated levels of ethanol and glycerol, comparison of Tables 10 and 11) was “significantly higher”, the FPFED % [2, 22] was 63.16% and the “Fine Particle Dose” value [2, 22] was 98.92 µg. For the same compound, the “MMAD ± GSD” value [2, 22] was 1.41 ± 1.95 μm, the FPFED % [2, 23] was 55.67% and the “Fine Particle Dose” value [2, 23] was 105.11 µg. The “MMAD ± GSD” value [2, 23] was 1.57 ± 1.98 μm, the FPFED [3, 24] was 65.17% and the FPM [3, 24] was 114.36 µg. The “MMAD (μm) ± GSD” value [3, 24] was 1.27 ± 1.80 μm, the FPFED [3, 25] was 67.97% and the FPM [3, 25] was 123.94 µg. The “MMAD (μm) ± GSD” value [3, 25] was 1.55 ± 1.93 μm, the FPFED [3, 26] was 65.69% and the FPM [3, 26] was 120.25 µg. For the same compound, the “MMAD (μm) ± GSD” value [3, 26] was 1.62 ± 2.06 μm, the FPFED [3, 27] was 59.47% and the FPM [3, 27] was 117.15 µg. The “MMAD (μm) ± GSD” value [3, 27] was 1.33 ± 1.84 μm, the FPFED [3, 28] was 58.64% and the FPM [3, 28] was 116.83 µg. For the same compound, the “MMAD (μm) ± GSD” value [3, 28] was 2.09 ± 1.92 μm, the FPFED [3, 29] was 55.76% and the FPM [3, 29] was 104.23 µg. For the same compound, the “MMAD (μm) ± GSD” value [3, 29] was 2.19 ± 2.12 μm, the FPFED [3, 30] was 50.99% and the FPM [3, 30] was 102.86 µg. The “MMAD (μm) ± GSD” value [3, 30] was 1.42 ± 2.02 μm, the FPFED [3, 31] was 48.85% and the FPM [3, 31] was 96.11 µg. The “MMAD (μm) ± GSD” value [3, 31] was 2.29 ± 2.06 μm, the FPFED [3, 32] was 43.57% and the FPM [3, 32] was 83.04 µg. The “MMAD (μm) ± GSD” value [3, 32] was 2.59 ± 2.12 μm.

For COc1ccc(CC(C)NCC(O)c2ccc(O)c(NC=O)c2)cc1 (stereo not shown) [formoterol fumarate dihydrate], the FPFED % [2, 22] was 66.35%, the “Fine Particle Dose” value [2, 22] was 3.67 µg and the “MMAD ± GSD” value [2, 22] was 1.36 ± 2.00 μm. For the same compound, the FPFED % [2, 23] was 60.01%, the “Fine Particle Dose” value [2, 23] was 3.57 µg and the “MMAD ± GSD” value [2, 23] was 1.51 ± 2.08 μm.
